Patent US11180423B2, “Compositions and methods for micronutrient introduction” (CHS INC., priority 2014, dated 2021)

Assays:
[1] = tested on: corn variety Dekalb 45-51; assay: 2013 Corn Trial—Brookings, S. Dak.; type: in vivo; settings: compared to untreated controls
Experimental: A corn trial utilizing a composition of the instant disclosure was performed near Brookings, S. Dak., in 2013. In this example, the composition comprised ortho-ortho EDDHA as the exemplary ligand.
In this example, corn variety Dekalb 45-51 was planted on May 14, 2013. Corn was planted to a population of 32,000 plants per acre, and a 30-inch row spacing was used. The soil type was Brandt silty clay loam.
Corn plants were harvested on Oct. 24, 2013. Thereafter, the yield of corn plants administered the composition comprising ortho-ortho EDDHA was compared to the yield of control corn plants that were untreated.

[2] = tested on: corn variety Pioneer 8640 Roundup Ready; assay: 2013 Corn Trial—Casselton, N. Dak.; type: in vivo; settings: compared to untreated controls
[3] = tested on: glycine max (variety PB0954RR) soybean; assay: 2013 Soybean Trial—St. Cloud, Minn.; type: in vivo; settings: compared to untreated controls
Experimental: A soybean trial utilizing a composition of the instant disclosure was performed in St. Cloud, Minn., in 2013. In this example, the composition comprised ortho-ortho EDDHA as the exemplary ligand.
In this example, glycine max (variety PB0954RR) soybean seeds were planted on Jun. 17, 2013. The tillage type was conventional till. The treated crop area for the instant example was 300 square feet (ft^2). The study design was randomized complete block (RCB) with four replications.
Soybean plants were harvested on Oct. 11, 2013. Thereafter, yield of soybean plants administered the composition comprising ortho-ortho EDDHA was compared to the yield of control soybean plants that were untreated.

[4] = Visual observations of fertilizer treatment mixes; type: physicochemical; settings: various fertilizers, for instance 9-18-9
corn = assay: 2014 Corn Trial—Scandia, Kans.; type: in vivo; settings: starter fertilizer treatment groups; for yield response (effect in words): FIG. 1, Table 8, improvement especially for groups without micronutrients (10-34-0, 9-18-9)
Experimental: A corn trial utilizing a composition of the instant disclosure was performed near Scandia, Kans., in 2014. In this example, the composition comprised ortho-ortho EDDHA as the exemplary ligand (i.e., “WC101”).
In this example, corn was planted on May 2, 2014. Treatments were applied as starter applications at planting with an application volume of 6 gpa. Weed control was completed as needed to keep weed free with maintenance sprays.
Data collected included yield (bu/acre), test weight, moisture, preliminary soil analysis, and plant tissue and grain analysis. Grain yield was measured harvesting the two center rows with a plot combine. Total phosphorus (P) content in plant tissue was measured for the ear leaf and grain P concentration was measured after harvest with grain analysis for total P content.
Fertilizer treatment mixes were completed before application. […] Although treatment application was complicated in some instances, the rates and placement for the instant example were believed to be within acceptable parameters. Grain yield was measured harvesting the two center rows with a plot combine. Total phosphorus (P) content in plant tissue was measured for the ear leaf and grain P concentration was measured after harvest with grain analysis for total P content.

[5] = tested on: Zea mays (variety DKC 43-48); assay: 2012 Corn Trial—St. Cloud, Minn.; type: in vivo; settings: in furrow, compared to untreated controls
Experimental: A corn trial utilizing a composition of the instant disclosure was performed in St. Cloud, Minn., in 2012. In this example, the composition comprised ortho-ortho EDDHA as the exemplary ligand.
In this example, Zea mays (variety DKC 43-48) seeds were planted on May 15, 2012. Soil moisture was normal and the seed bed was compacted. The tillage type was conventional till. The treated crop area for the instant example was 300 square feet (ft^2). The study design was randomized complete block (RCB) with four replications.
Corn plants were harvested on Oct. 10, 2012. Thereafter, the yield of corn plants administered the composition comprising ortho-ortho EDDHA was compared to the yield of control corn plants that were untreated.

corn seeds = assay: 2013 Corn Seed Trial—Brookings, S. Dak.; type: in vivo; settings: corn seed treatment; compared to untreated controls
Experimental: A corn seed trial utilizing a composition of the instant disclosure was performed in Brookings, S. Dak., in 2013. In this example, the composition comprised ortho-ortho EDDHA as the exemplary ligand (i.e., “WC101”). The study design was randomized complete block (RCB) with four replications. […] [table] Plot unit sizes were approximately 10 feet by 40 feet according to the disclosed layout of FIG. 9.

O=C(O)C(NCCNC(C(=O)O)c1ccccc1O)c1ccccc1O (stereo not shown) [ortho-ortho EDDHA]
yield increase [1]: 8.2 bushels per acre | yield increase [2]: 4.6 bushels per acre | yield increase [3]: 5.1 bushels per acre | compatibility with fertilizers in treatment mixes [4]: possible compatibility issues | yield response (effect in words) (corn; listed as WC101): improvement | yield response (effect in words) (corn; listed as ligand): statistically significant effect | plant tissue phosphorus (P) response, ear leaf (effect in words) (corn; FIG. 2, Table 8, listed as WC101): improvement | plant tissue phosphorus (P) response, ear leaf (effect in words) (corn; FIG. 2, Table 8, listed as ligand): statistically significant effect | grain P removal response (effect in words) (corn; FIG. 3, Table 8, listed as WC101): improvement | grain P removal response (effect in words) (corn; FIG. 3, Table 8, listed as ligand): statistically significant effect | yield increase [5]: 8.5 bushels per acre | emergence increase (corn seeds): 3.5% | yield increase (corn seeds): 1.4 bushels per acre
